In PMC4581690, “Targeting Lysine Deacetylases (KDACs) in Parasites” (PLoS Neglected Tropical Diseases, 2015):
Read-outs that look alike come from different tables or passages of the source.

Legend:
[1] = test system: L. donovani strain MHOM/SD/00/LS; experiment: LEI axe: Leishmania axenic amastigote assay; assay type: cell-based
L929 mouse fibroblast = experiment: CYT vt: cytotoxicity viability assay; assay type: cell-based
T. brucei strain S427 = experiment: HAT vt: Human African trypanosoma viability assay; assay type: cell-based; conditions: 72 hour, resazurin, read-out: measured activity (IC50), HAT vt, TbbS427
P. falciparum 3D7 strain = experiment: MAL vt: Malaria viability assay; assay type: cell-based; conditions: Plasmodium falciparum
Dirofilaria immitis = experiment: Endoparasites_DR: endoparasites dose response assay, D. immitis; assay type: cell-based; conditions: 72 h, read-out: measured activity (EC50), Endoparasites_DR, D. immitis
[2] = test system: parasite species and L929 mouse fibroblast; experiment: In vitro screening of compounds against parasite panel and mammalian cell line (overall statements); assay type: cell-based
human cancer cell lines = test system: human cancer cell lines; design: method as in PMID 23526814; conditions: 8b and 10c therein; cited from earlier work
Brugia malayi = experiment: Endoparasites_DR: endoparasites dose response assay, B. malayi; assay type: cell-based
Haemonchus contortus = experiment: microbe, parasite or virus in culture; assay type: cell-based; conditions: 96 hour, read-out: measured activity (EC50), Endoparasites_DR, H. contortus
[3] = 72 hour, axenic amastigotes, resazurin, read-out: measured activity (IC50), LEI axe, Ld1S
[4] = Mus musculus, L929, read-out: measured activity (IC50), CYT vt, L929
[5] = 3D7, 0.25 h, timepoint 15 minute, read-out: measured activity (IC50), MAL vt, PfDd2
[6] = Mus musculus, Table 2, column H. sapiens, same values as L929 in Table 1, read-out: EC50(IC50)
[7] = 120 h, 5 day, read-out: measured activity (EC50), Endoparasites_DR, B. malayi
[8] = Table 2, column B. malayi, read-out: EC50(IC50)

Compound	IC50 [1, 3]	IC50 (L929 mouse fibroblast; [4])	IC50 (T. brucei strain S427)	IC50 (P. falciparum 3D7 strain; [5])	further results
CN1CCc2c(c3ccccc3n2Cc2ccc(C(=O)NO)cc2)C1 [GRM2, Tubastatin, reference compound]	> 5 µM	6.22 µM	2.7 µM		
O=C(CCCCCSc1nc2ccccc2c(=O)[nH]1)NO [MC1862]		7.12 µM		1.15 µM	
Cn1cc(/C=C/C(=O)c2cccc(NC(=O)OC(C)(C)C)c2)cc1C(=O)NO [MC2776]					IC50 (L929 mouse fibroblast; [6]): > 10 µM; EC50 (Dirofilaria immitis): > 10 µM; efficacy in the protists ([2]; T. brucei, L. donovani, P. falciparum): did not show any efficacy; IC50 (human cancer cell lines): > 10 µM; EC50 (Brugia malayi; [7]): 4.39 µM; EC50 (Brugia malayi; [8]): 4.39 µM
CC(C)(C)OC(=O)Nc1ccc(-c2cc(C(=O)NCCCCCCC(=O)NO)no2)cc1 [MC2726]				0.189 µM	IC50 (L929 mouse fibroblast; L929 mouse fibroblast, read-out: measured activity (IC50), CYT vt, L929): 1.92 µM
CC(C)(C)OC(=O)Nc1cccc(C(=O)/C=C/c2ccc(/C=C/C(=O)NO)cc2)c1 [MC2780]	0.473 µM		0.623 µM	0.056 µM	IC50 ([1]; Table 2, column L. donovani, read-out: EC50(IC50)): 0.47 µM; IC50 (L929 mouse fibroblast; [6]): 4.81 µM; IC50 (P. falciparum 3D7 strain; 3D7, Table 2, column P. falciparum, read-out: EC50(IC50)): 0.06 µM; EC50 (Dirofilaria immitis): 8.14 µM; activity across parasites [2]: pan-parasite potential; IC50 on human cancer cell lines (human cancer cell lines): more potent IC50; EC50 (Brugia malayi; [7]): 2.53 µM; EC50 (Brugia malayi; [8]): 2.53 µM
CC(C)(C)OC(=O)Nc1cccc(-c2cc(C(=O)NCCCCCCC(=O)NO)no2)c1 [MC2727a]		2.35 µM		0.96 µM	
CCCCCCCC(=O)SCC/C=C/[C@@H]1CC(=O)NCc2nc(cs2)C2=N[C@@](C)(CS2)C(=O)N[C@@H](C(C)C)C(=O)O1 [SD-L-148, Largazole, reference compound]		0.101 µM			EC50 (Haemonchus contortus): 7.1 µM
O=C(CCCCSc1nc(-c2ccc(-c3ccccc3)cc2)cc(=O)[nH]1)NO [MC1742]		1.51 µM		< 0.01 µM	
COc1cc(-c2ccccc2)nc(SCc2ccc(/C=C/C(=O)NO)cc2)n1 [MC2126]	> 5 µM	1.76 µM	0.441 µM	1.92 µM	
CN(C)Cc1ccc(S(=O)(=O)n2ccc3cc(/C=C/C(=O)NO)ccc32)cc1 [MC3031]	> 5 µM	0.555 µM	0.267 µM		
O=C(CCCCCCC(=O)Nc1ccccc1)NO [GRM1, SAHA, reference compound]				0.152 µM	
O=C(/C=C/c1ccc(NC(=O)C(Cc2ccccc2)c2ccccc2)cn1)NO (stereo not drawn) [MC2625]	> 5 µM	0.311 µM	1.18 µM	0.022 µM	
